Experiments:
[1] = tested on: Aβ production in neuroblastoma SH-SY5Y cells (SH/APPwt); experiment: β-amyloid (Aβ) production inhibitory effect in cell: 96-well; type: cell-based; settings: Homo sapiens, Assay format 96-well
Procedure: Neuroblastoma SH-SY5V cells (SH/APPwt) with human wild-type R-APP excessively expressed therein were prepared at 8×10^5 cells/mL, and 150 μl portions thereof were inoculated into each well of a 96-well culture plate (Falcon). The cells were cultured for 2 hours at […]. in a 5% gaseous carbon dioxide incubator. […] Namely, the final DMSO concentration was 1%, and the amount of the cell culture was 200 μl. After the incubation was performed for 24 hours from the addition of the test compound, 100 μl of the culture supernatant was collected from each fraction. The amount of the Aβ in each fraction was measured. The Aβ amount was measured as follows. 10 μl of a homogeneous time resolved fluorescence (HTRF) measurement reagent (Amyloid β1-40 peptide: CIS bio international) and 10 μof the culture supernatant were put into a 384-well half area microplate (black microplate, Costar) and mixed with each other, and then left standing overnight at 4° C. while the light was shielded.

CYP2C9 = biological target: T1, CYP2C9 (Homo sapiens, UniProt P11712); experiment: CYP inhibition test (CYP2C9); type: in vitro ADME; settings: pooled human liver microsomes; tolbutamide methyl-hydroxylation
T1 construct: The commercially available pooled human liver microsomes are used as an enzyme resource; from tissue; host or cells: pooled human liver microsomes
Summary of the method: (§1)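 Pooled human liver microsomes (0.2 mg protein/mL) were incubated at 37 °C with NADPH, compound at 1, 5, 10, 20 μmol/L and marker substrates: tolbutamide 100 μmol/L (2C9), S-mephenytoin 50 μmol/L (2C19), dextromethorphan 5 μmol/L (2D6), terfenadine 1 μmol/L (3A4). Metabolites were measured by LC/MS/MS; IC50 came from logistic fitting against DMSO control.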

CYP2D6 = biological target: T2, CYP2D6 (Homo sapiens, UniProt P10635); experiment: CYP inhibition test (CYP2D6); type: in vitro ADME; settings: pooled human liver microsomes; dextromethorphan O-demethylation
T2 construct: The commercially available pooled human liver microsomes are used as an enzyme resource; from tissue; host or cells: pooled human liver microsomes
Summary of the method: as §1

Recombinant human BACE1 = biological target: T3, Recombinant human BACE1 (Homo sapiens, UniProt P56817); experiment: Assay of BACE1 inhibitory activity: 384-well; type: biochemical; settings: Assay format 384-well
T3 construct: purchased R&D Systems
Summary of the method: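 Recombinant human BACE1 was incubated 2 h at 25 °C with a biotin/Eu-cryptate-labelled peptide substrate and compound in DMSO. Streptavidin-XL665 in pH 7.0 phosphate buffer containing 0.8 mol/L KF was then added for 30 min at 25 °C for HTRF detection.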

[2] = biological target: T4, P-gp (MDR1 expressing LLC-PK1 cells) (Homo sapiens, UniProt P08183); experiment: P-gp substrate test; type: in vitro ADME; settings: net flux = Efflux Ratio in MDR1 expressing cells / Efflux Ratio in parent LLC-PK1 cells
T4 construct: host or cells: LLC-PK1
Procedure: • 1. Cell line: • a. MDR/LLC-PK1 (Becton Dickinson) • b. LLC-PK1 (Becton Dickinson) • 2. Reference substrates: • a Digoxin (2 μM)
1. […] After incubation for designed time at 37° C., an aliquot (50 μL) of transport buffer in the donor and receiver side were collected. Assay was performed by duplicate or triplicate. 3. Reference substrate and the present invention in the aliquot was quantified by LC/MS/MS.
Pc(cm/sec)−Permeated amount (pmol)/area of cell membrane (cm2)/initial concentration (nM)/incubation time (sec)
The efflux ratio was calculated using the following equation:
Efflux Ratio=Basolateral-to-Apical Pe/Apical-to-Basolateral Pe
The net flux was calculated using the following equation
Net flux=Efflux Ratio in MDK1 expressing cells/Efflux Ratio in parent cells

T3 sequence (P56817 46-501): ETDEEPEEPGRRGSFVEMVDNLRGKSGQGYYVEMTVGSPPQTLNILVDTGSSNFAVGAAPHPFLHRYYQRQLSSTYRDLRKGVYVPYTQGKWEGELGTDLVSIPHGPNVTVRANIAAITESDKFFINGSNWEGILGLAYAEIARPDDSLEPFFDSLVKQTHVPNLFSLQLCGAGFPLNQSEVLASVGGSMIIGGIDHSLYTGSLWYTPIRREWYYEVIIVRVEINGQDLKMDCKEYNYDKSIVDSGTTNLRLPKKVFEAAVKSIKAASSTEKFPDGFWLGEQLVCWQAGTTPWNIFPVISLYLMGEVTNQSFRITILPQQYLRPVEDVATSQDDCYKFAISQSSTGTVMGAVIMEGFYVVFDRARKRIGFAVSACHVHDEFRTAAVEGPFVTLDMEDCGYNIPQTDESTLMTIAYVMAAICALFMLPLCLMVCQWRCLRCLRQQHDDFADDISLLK
T2 sequence (P10635 whole entry): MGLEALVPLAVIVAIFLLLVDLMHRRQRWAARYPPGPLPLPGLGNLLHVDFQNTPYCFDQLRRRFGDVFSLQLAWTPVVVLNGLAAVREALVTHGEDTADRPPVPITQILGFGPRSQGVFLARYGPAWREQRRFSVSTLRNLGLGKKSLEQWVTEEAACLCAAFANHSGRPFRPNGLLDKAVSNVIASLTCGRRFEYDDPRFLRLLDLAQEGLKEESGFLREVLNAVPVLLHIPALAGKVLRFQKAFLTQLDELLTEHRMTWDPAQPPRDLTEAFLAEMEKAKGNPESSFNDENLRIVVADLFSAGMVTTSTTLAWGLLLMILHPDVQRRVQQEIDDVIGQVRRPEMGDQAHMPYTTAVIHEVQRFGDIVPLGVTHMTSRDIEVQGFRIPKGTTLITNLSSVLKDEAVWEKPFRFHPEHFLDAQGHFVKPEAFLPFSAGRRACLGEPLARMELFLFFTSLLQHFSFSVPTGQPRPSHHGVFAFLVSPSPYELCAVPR
T4 sequence (P08183 whole entry): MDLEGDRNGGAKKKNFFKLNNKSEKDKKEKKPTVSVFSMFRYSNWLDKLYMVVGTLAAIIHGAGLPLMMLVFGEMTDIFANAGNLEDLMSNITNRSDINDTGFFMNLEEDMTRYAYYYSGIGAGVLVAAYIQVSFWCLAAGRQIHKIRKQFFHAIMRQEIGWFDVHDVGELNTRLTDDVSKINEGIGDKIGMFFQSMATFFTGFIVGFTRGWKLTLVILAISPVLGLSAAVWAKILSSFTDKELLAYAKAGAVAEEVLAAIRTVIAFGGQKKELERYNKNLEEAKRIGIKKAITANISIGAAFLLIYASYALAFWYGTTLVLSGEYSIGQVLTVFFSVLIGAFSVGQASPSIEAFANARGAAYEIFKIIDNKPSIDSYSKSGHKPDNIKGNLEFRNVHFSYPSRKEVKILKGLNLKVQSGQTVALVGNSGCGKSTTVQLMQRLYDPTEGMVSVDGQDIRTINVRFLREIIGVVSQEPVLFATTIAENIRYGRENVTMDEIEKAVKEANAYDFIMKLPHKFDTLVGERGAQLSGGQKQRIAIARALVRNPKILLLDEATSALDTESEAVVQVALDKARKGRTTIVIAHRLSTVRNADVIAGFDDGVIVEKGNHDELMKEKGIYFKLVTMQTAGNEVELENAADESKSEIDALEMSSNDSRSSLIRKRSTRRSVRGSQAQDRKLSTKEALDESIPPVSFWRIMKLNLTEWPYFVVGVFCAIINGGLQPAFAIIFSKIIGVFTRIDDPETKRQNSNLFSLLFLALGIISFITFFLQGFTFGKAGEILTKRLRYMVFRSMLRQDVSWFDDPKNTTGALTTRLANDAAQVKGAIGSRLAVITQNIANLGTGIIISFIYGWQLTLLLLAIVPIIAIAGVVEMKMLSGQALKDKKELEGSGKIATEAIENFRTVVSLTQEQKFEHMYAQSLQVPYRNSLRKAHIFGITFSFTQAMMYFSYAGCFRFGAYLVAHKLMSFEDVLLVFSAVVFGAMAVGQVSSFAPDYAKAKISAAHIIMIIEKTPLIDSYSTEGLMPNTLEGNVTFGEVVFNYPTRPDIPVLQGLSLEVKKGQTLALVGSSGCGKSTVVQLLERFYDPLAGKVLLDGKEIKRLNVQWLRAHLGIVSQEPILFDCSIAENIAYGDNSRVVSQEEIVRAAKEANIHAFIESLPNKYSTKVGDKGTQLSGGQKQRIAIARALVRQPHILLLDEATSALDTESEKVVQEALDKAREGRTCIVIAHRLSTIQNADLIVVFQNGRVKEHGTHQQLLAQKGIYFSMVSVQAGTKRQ
T1 sequence (P11712 whole entry): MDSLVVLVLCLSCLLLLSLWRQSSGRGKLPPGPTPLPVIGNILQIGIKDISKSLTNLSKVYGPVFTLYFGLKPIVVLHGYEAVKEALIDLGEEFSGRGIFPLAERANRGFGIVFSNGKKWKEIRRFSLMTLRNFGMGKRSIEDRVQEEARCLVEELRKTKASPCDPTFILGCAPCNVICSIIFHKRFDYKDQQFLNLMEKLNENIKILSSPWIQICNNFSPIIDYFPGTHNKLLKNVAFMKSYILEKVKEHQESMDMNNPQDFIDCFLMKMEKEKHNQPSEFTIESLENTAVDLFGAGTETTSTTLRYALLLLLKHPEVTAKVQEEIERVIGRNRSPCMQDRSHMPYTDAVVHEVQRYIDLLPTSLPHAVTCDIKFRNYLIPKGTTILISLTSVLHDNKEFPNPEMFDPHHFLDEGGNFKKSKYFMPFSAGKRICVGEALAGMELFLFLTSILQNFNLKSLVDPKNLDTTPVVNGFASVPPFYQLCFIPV

Structure (SMILES)	IC50 [1] [nM]	IC50 (CYP2C9) [nM]	IC50 (CYP2D6) [nM]	IC50 (Recombinant human BACE1) [nM]	ER ratio (Cell: MDR1/LLC-PK1) [2]
C[C@]1(c2cc(NC(=O)c3ccc(F)cn3)ccc2F)N=C(N)O[C@H](CF)[C@@H]1OCC(F)(F)F [Compound I-11]	4.21	≥ 10000	≥ 10000	–	–
CO[C@H]1[C@@H](CF)OC(N)=N[C@]1(C)c1cc(NC(=O)c2ccc(C#N)cn2)ccc1Cl [Compound I-18]	0.573	≥ 20000	≥ 20000	–	–
CO[C@H]1[C@@H](CF)OC(N)=N[C@]1(C)c1cc(NC(=O)c2ccc(F)cn2)ccc1Cl [Compound I-20]	4.19	≥ 20000	≥ 20000	–	–
CO[C@H]1[C@@H](CF)OC(N)=N[C@]1(C)c1cc(NC(=O)c2cnc(OCF)cn2)ccc1F [Compound I-24]	2.28	≥ 20000	≥ 10000	–	–
CO[C@H]1[C@@H](CF)OC(N)=N[C@]1(C)c1cc(NC(=O)c2ccc(F)cn2)ccc1F [Compound I-25]	4.31	≥ 20000	≥ 20000	–	–
C[C@H]1SC(N)=N[C@](C)(c2cc(NC(=O)c3coc(CF)n3)ccc2F)[C@H]1F [Compound I-49]	–	≥ 10000	≥ 20000	3.13	–
COc1ccc(C(=O)Nc2ccc(F)c([C@@]3(C)N=C(N)S[C@H](C)[C@@H]3F)c2)nc1 [Compound I-50]	–	–	–	7.77	1.1
C[C@H]1SC(N)=N[C@](C)(c2cc(NC(=O)c3ccc(OCF)cn3)ccc2F)[C@H]1F [Compound I-51]	–	–	–	17.5	0.56
C[C@H]1SC(N)=N[C@](C)(c2cc(NC(=O)c3ncc(OCC(F)(F)F)cn3)ccc2F)[C@H]1F [Compound I-53]	–	–	≥ 20000	14.5	–
COc1cnc(C(=O)Nc2ccc(F)c([C@@]3(C)N=C(N)SCC34CC(F)(F)C4)c2)cn1 [Compound I-55]	–	≥ 20000	–	19.8	0.9
C[C@]1(c2cc(NC(=O)c3ccc(C#N)cn3)ccc2F)N=C(N)SCC12CC(F)(F)C2 [Compound I-59]	–	≥ 20000	–	10.9	1.2
C[C@H]1SC(N)=N[C@](C)(c2cc(NC(=O)c3ccc(F)cn3)ccc2F)C12CC(F)(F)C2 [Compound I-63]	–	≥ 10000	–	11.9	–
C[C@H]1SC(N)=N[C@](C)(c2cc(NC(=O)c3ncc(C#N)cc3Cl)ccc2F)[C@H]1F [Compound I-64]	–	–	≥ 20000	7.06	3.2
CC[C@H]1SC(N)=N[C@](C)(c2cc(NC(=O)c3cnc(OCF)cn3)ccc2F)[C@H]1F [Compound I-66]	–	–	–	5.62	0.6
CC[C@H]1SC(N)=N[C@](C)(c2cc(NC(=O)c3ccc(OCF)cn3)ccc2F)[C@H]1F [Compound I-67]	–	–	–	5.47	0.9
CC[C@H]1SC(N)=N[C@](C)(c2cc(NC(=O)c3ccc(F)cn3)ccc2F)[C@H]1F [Compound I-70]	–	–	≥ 10000	10.6	–
COc1cnc(C(=O)Nc2ccc(F)c([C@@]3(C)N=C(N)O[C@H]([C@@H](C)F)[C@@H]3F)c2)cn1 [Compound I-71]	–	≥ 20000	–	12	0.92
CC(F)(F)[C@H]1OC(N)=N[C@](C)(c2cc(NC(=O)c3cnc(OCC(F)(F)F)cn3)ccc2F)[C@H]1F [Compound I-75]	–	≥ 10000	–	15.6	0.8
CC#CCOc1cnc(C(=O)Nc2ccc(F)c([C@@]3(C)N=C(N)O[C@H](C(C)(F)F)[C@@H]3F)c2)cn1 [Compound I-76]	–	–	–	3.77	1

Structure (SMILES)	IC50 [1] [nM]	IC50 (CYP2C9) [nM]	IC50 (CYP2D6) [nM]	IC50 (Recombinant human BACE1) [nM]	ER ratio (Cell: MDR1/LLC-PK1) [2]
CC(F)(F)[C@H]1OC(N)=N[C@](C)(c2cc(NC(=O)c3cnc(OCC(F)F)cn3)ccc2F)[C@H]1F [Compound I-77]	–	≥ 10000	–	45.8	1.2
COCC(F)(F)[C@H]1OC(N)=N[C@](C)(c2cc(NC(=O)c3cnc(OCF)cn3)ccc2F)[C@H]1F [Compound I-79]	–	≥ 10000	–	13.2	1.7
C[C@]1(c2cc(NC(=O)c3ccc(C#N)cn3)ccc2F)N=C(N)O[C@H](C(F)(F)C2CC2)[C@@H]1F [Compound I-81]	–	≥ 10000	–	16.9	–
C[C@]1(c2cc(NC(=O)c3cnc(OCF)cn3)ccc2F)N=C(N)O[C@H](C(F)(F)C2CC2)[C@@H]1F [Compound I-82]	–	–	–	25.1	0.96
COc1cnc(C(=O)Nc2ccc(F)c([C@@]3(C)N=C(N)O[C@H](C(F)(F)C4CC4)[C@@H]3F)c2)cn1 [Compound I-83]	–	–	–	30.3	–
C[C@H]1SC(N)=N[C@](C)(c2cc(NC(=O)c3cnc(OCC4CC4)cn3)ccc2F)[C@H]1F [Compound I-85]	–	–	≥ 20000	15.4	–
COc1cnc(C(=O)Nc2ccc(F)c([C@@]3(C)N=C(N)O[C@H](C(F)F)[C@@H]3C)c2)cn1 [Compound I-86]	–	≥ 20000	–	101	1.5
CO[C@H]1[C@@H](C)SC(N)=N[C@]1(C)c1cc(NC(=O)c2cnc(OCF)cn2)ccc1F [Compound I-87]	–	≥ 20000	≥ 20000	21.4	3.4
CO[C@H]1[C@@H](C)SC(N)=N[C@]1(C)c1cc(NC(=O)c2ccc(C#N)cn2)ccc1F [Compound I-88]	–	≥ 20000	≥ 20000	14.4	–
CO[C@H]1[C@@H](C)SC(N)=N[C@]1(C)c1cc(NC(=O)c2ccc(F)cn2)ccc1F [Compound I-89]	–	≥ 20000	≥ 20000	15.1	–
COc1cnc(C(=O)Nc2ccc(F)c([C@@]3(C)N=C(N)S[C@H](C)[C@@H]3OC)c2)cn1 [Compound I-90]	–	≥ 20000	≥ 20000	15.3	3.1
C[C@]1(c2cc(NC(=O)c3ccc(C#N)cn3)ccc2F)N=C(N)O[C@H](C2(F)CC2)[C@@H]1F [Compound I-96]	–	≥ 10000	≥ 20000	21.2	2.0
C[C@]1(c2cc(NC(=O)c3ccc(OCF)cn3)ccc2F)N=C(N)O[C@H](C2(F)CC2)[C@@H]1F [Compound I-101]	–	–	–	25.3	1.1
COc1cnc(C(=O)Nc2cccc([C@@]3(C)N=C(N)S[C@H](C)[C@@H]3F)c2)cn1 [Compound I-103]	–	≥ 10000	≥ 20000	17.3	1.4
C[C@H]1SC(N)=N[C@](C)(c2cccc(NC(=O)c3cnc(OCF)cn3)c2)[C@H]1F [Compound I-104]	–	≥ 10000	≥ 20000	10.8	1.4
C[C@H]1SC(N)=N[C@](C)(c2cccc(NC(=O)c3cnc(C(F)F)cn3)c2)[C@H]1F [Compound I-106]	–	≥ 20000	≥ 20000	19.4	1.9
COc1ccc(C(=O)Nc2ccc(F)c([C@@]3(C)N=C(N)S[C@H](C)[C@@H]3F)c2)nn1 [Compound I-108]	–	–	≥ 10000	136	1.4
C[C@]1(c2cc(NC(=O)c3cnc(OCF)cn3)ccc2F)N=C(N)S[C@H](CO)[C@@H]1F [Compound I-109]	–	–	–	10.8	8.5
